Laboratory results as given in US20100183625A1, “Treatment of Mucositis with Kallikrein Inhibitors” (Dyax Corp., priority 2009, published 2010).
Positions of bridges follow the written chain, without caps; N, C: chain ends. No end group written: not given here.

Key:
pKal = pKal (Homo sapiens, UniProt P03952); conditions: read-out: Ki,app; active site inhibitor of pKal; cited from earlier work
[1] = Lot 100808, phosphate buffered saline, pH 7.0, 5.6 mg/mL
[2] = biological target: plasma kallikrein (NP_000883) (Homo sapiens, UniProt P03952); conditions: cited from earlier work
Chain of plasma kallikrein (NP_000883) (P03952 20-638): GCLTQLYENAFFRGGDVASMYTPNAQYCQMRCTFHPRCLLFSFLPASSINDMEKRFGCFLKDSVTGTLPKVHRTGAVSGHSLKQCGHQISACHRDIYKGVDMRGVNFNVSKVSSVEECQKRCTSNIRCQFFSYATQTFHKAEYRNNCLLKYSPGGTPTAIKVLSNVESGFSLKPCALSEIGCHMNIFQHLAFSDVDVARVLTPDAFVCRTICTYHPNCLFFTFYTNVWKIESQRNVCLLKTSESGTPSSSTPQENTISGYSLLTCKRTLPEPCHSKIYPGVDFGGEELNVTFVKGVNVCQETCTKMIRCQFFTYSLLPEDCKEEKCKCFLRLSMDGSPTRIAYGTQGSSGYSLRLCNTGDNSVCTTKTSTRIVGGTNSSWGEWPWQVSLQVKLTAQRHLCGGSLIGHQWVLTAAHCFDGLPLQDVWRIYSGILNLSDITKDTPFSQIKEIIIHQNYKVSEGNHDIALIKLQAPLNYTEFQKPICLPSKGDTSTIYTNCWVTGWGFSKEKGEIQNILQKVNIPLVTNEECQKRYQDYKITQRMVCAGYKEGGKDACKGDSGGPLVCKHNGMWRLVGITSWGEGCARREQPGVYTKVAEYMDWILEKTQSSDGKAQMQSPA

Chain of pKal (P03952 20-638): as above

Sequence	Ki (pKal) [nM]	Stability [1]	Ki [2] [nM]
EAMHSFCAFKADDGPCRAAHPRWFFNIFTRQCEEFSYGGCGGNQNRFESLEECKKMCTRD (disulfide 7-57, 16-40, 32-53) [EPI-KAL2]	0.1	Stable for 24 hours at 2-4 °C	–
EAMHSFCAFKADDGPCRAAHPRWFFNIFTRQCEEFIYGGCEGNQNRFESLEECKKMCTRD (disulfide 7-57, 16-40, 32-53) [DX-88]	–	–	< 1
